Mutagenic call data for 7 compounds are collected here from PubChem BioAssay AID1259407 (Chemical Carcinogenesis Research Information System (CCRIS), 2018).

The data set has as its system CCRIS mutagenicity, Ames/micronucleus/aberration tests. Kind of data set: CCRIS mutagenicity studies.
Setting [1] is: Test System: AMES SALMONELLA TYPHIMURIUM, Strain/Indicator: TA97, Metabolic Activation: NONE, Method: STANDARD PLATE.
Where [2] appears, read: Test System: AMES SALMONELLA TYPHIMURIUM, Strain/Indicator: TA97, Metabolic Activation: RAT, LIVER, S-9, AROCLOR 1254, Method: STANDARD PLATE.
[3] abbreviates: Test System: AMES SALMONELLA TYPHIMURIUM, Strain/Indicator: TA98, Metabolic Activation: NONE, Method: PREINCUBATION
Setting [4] is: Test System: AMES SALMONELLA TYPHIMURIUM, Strain/Indicator: TA98, Metabolic Activation: NONE, Method: STANDARD PLATE.
[5] abbreviates: Test System: AMES SALMONELLA TYPHIMURIUM, Strain/Indicator: TA98, Metabolic Activation: RAT, LIVER, S-9, AROCLOR 1254, Method: STANDARD PLATE.
Where [6] appears, read: Test System: AMES SALMONELLA TYPHIMURIUM, Strain/Indicator: TA100, Metabolic Activation: NONE, Method: STANDARD PLATE.
Setting [7] is: Test System: AMES SALMONELLA TYPHIMURIUM, Strain/Indicator: TA100, Metabolic Activation: RAT, LIVER, S-9, AROCLOR 1254, Method: STANDARD PLATE.

Activity calls are given as the source filed them. No rule for the calls is given here.

With `NC(N)=S`, the mutagenic call by setting is: (Test System: AMES SALMONELLA TYPHIMURIUM, Strain/Indicator: TA97, Metabolic Activation: HAMSTER, LIVER, S-9, AROCLOR 1254 (10 OR 30%), Method: PREINCUBATION) “inactive; negative”; (Test System: AMES SALMONELLA TYPHIMURIUM, Strain/Indicator: TA97, Metabolic Activation: NONE, Method: PREINCUBATION) “inactive; negative”; under setting [1], “inactive; negative”; (Test System: AMES SALMONELLA TYPHIMURIUM, Strain/Indicator: TA97, Metabolic Activation: RAT, LIVER, S-9, AROCLOR 1254 (10 OR 30%), Method: PREINCUBATION) “inactive; negative”; under setting [2], “inactive; negative”; (Test System: AMES SALMONELLA TYPHIMURIUM, Strain/Indicator: TA98, Metabolic Activation: HAMSTER, LIVER, S-9, AROCLOR 1254 (10 OR 30%), Method: PREINCUBATION) “inactive; negative”. In addition, the mutagenic call reads like this: under setting [3], “inactive; negative”; under setting [4], “inactive; negative”; (Test System: AMES SALMONELLA TYPHIMURIUM, Strain/Indicator: TA98, Metabolic Activation: RAT LIVER S-9, PHENOBARBITAL AND BETA-NAPHTHOFLAVONE, Method: PREINCUBATION) “inactive; negative”; (Test System: AMES SALMONELLA TYPHIMURIUM, Strain/Indicator: TA98, Metabolic Activation: RAT, LIVER, S-9, AROCLOR 1254 (10 OR 30%), Method: PREINCUBATION) “inactive; negative”; under setting [5], “inactive; negative”; (Test System: AMES SALMONELLA TYPHIMURIUM, Strain/Indicator: TA100, Metabolic Activation: HAMSTER, LIVER, S-9, AROCLOR 1254 (10 OR 30%), Method: PREINCUBATION) “inactive; negative”. Further, the mutagenic call was “inactive; negative” (Test System: AMES SALMONELLA TYPHIMURIUM, Strain/Indicator: TA100, Metabolic Activation: NONE, Method: PREINCUBATION); “inactive; negative” under setting [6]; “inactive; negative” (Test System: AMES SALMONELLA TYPHIMURIUM, Strain/Indicator: TA100, Metabolic Activation: RAT LIVER S-9, PHENOBARBITAL AND BETA-NAPHTHOFLAVONE, Method: PREINCUBATION); “inactive; negative” (Test System: AMES SALMONELLA TYPHIMURIUM, Strain/Indicator: TA100, Metabolic Activation: RAT, LIVER, S-9, AROCLOR 1254 (10 OR 30%), Method: PREINCUBATION); “inactive; negative” under setting [7]; “inactive; negative” (Test System: AMES SALMONELLA TYPHIMURIUM, Strain/Indicator: TA1535, Metabolic Activation: HAMSTER, LIVER, S-9, AROCLOR 1254 (10 OR 30%), Method: PREINCUBATION). For the same compound, the mutagenic call is, setting by setting: (Test System: AMES SALMONELLA TYPHIMURIUM, Strain/Indicator: TA1535, Metabolic Activation: NONE, Method: PREINCUBATION) “inactive; negative”; (Test System: AMES SALMONELLA TYPHIMURIUM, Strain/Indicator: TA1535, Metabolic Activation: RAT LIVER S-9, PHENOBARBITAL AND BETA-NAPHTHOFLAVONE, Method: PREINCUBATION) “inactive; negative”; (Test System: AMES SALMONELLA TYPHIMURIUM, Strain/Indicator: TA1535, Metabolic Activation: RAT, LIVER, S-9, AROCLOR 1254 (10 OR 30%), Method: PREINCUBATION) “inactive; negative”; (Test System: AMES SALMONELLA TYPHIMURIUM, Strain/Indicator: TA1537, Metabolic Activation: NONE, Method: PREINCUBATION) “inactive; negative”; (Test System: AMES SALMONELLA TYPHIMURIUM, Strain/Indicator: TA1537, Metabolic Activation: RAT LIVER S-9, PHENOBARBITAL AND BETA-NAPHTHOFLAVONE, Method: PREINCUBATION) “inactive; negative”; (Test System: E. COLI, Strain/Indicator: WP2 UVRA, Metabolic Activation: HAMSTER, LIVER, S-9, AROCLOR 1254, Method: STANDARD PLATE) “inactive; negative”. Besides, the mutagenic call reads like this: (Test System: E. COLI, Strain/Indicator: WP2 UVRA, Metabolic Activation: HAMSTER, LIVER, S-9, Method: STANDARD PLATE) “inactive; negative”; (Test System: E. COLI, Strain/Indicator: WP2 UVRA, Metabolic Activation: MOUSE, LIVER, S-9, AROCLOR 1254, Method: STANDARD PLATE) “inactive; negative”; (Test System: E. COLI, Strain/Indicator: WP2 UVRA, Metabolic Activation: MOUSE, LIVER, S-9, Method: STANDARD PLATE) “inactive; negative”; (Test System: E. COLI, Strain/Indicator: WP2 UVRA, Metabolic Activation: NONE, Method: STANDARD PLATE) “inactive; negative”; (Test System: E. COLI, Strain/Indicator: WP2 UVRA, Metabolic Activation: RAT, LIVER, S-9, AROCLOR 1254, Method: STANDARD PLATE) “inactive; negative”; (Test System: E. COLI, Strain/Indicator: WP2 UVRA, Metabolic Activation: RAT, LIVER, S-9, Method: STANDARD PLATE) “inactive; negative”. Also, the mutagenic call runs as follows: (Test System: E.COLI, Strain/Indicator: WP2UVRA/PKM101, Metabolic Activation: NONE, Method: PREINCUBATION) “inactive; negative”; (Test System: E.COLI, Strain/Indicator: WP2UVRA/PKM101, Metabolic Activation: RAT LIVER S-9, PHENOBARBITAL AND BETA-NAPHTHOFLAVONE, Method: PREINCUBATION) “inactive; negative”; (Test System: MOUSE LYMPHOMA, Strain/Indicator: L5178Y (TK+/TK-), Metabolic Activation: NONE, Method: SUSPENSION/PLATE) “inactive; negative”.

On to `O=C(ON(OCc1ccccc1)C(=O)c1ccccc1)c1ccc([N+](=O)[O-])cc1`, for which the mutagenic call under setting [6] is “active; positive” and the mutagenic call (Test System: AMES SALMONELLA TYPHIMURIUM, Strain/Indicator: TA100, Metabolic Activation: RAT, S-9, AROCLOR, Method: STANDARD PLATE) was “active; positive”.

`Cc1cccc2cc([N+](=O)[O-])ccc12`: the mutagenic call under setting [3] is “active; positive”.

Consider `N1=NC2[C@@H]3O[C@@H]3C1[C@H]1O[C@@H]21`, for which the mutagenic call under setting [4] was “inactive; negative”; the mutagenic call (Test System: AMES SALMONELLA TYPHIMURIUM, Strain/Indicator: TA98, Metabolic Activation: RAT, LIVER, S-9, PHENOBARBITAL, Method: STANDARD PLATE) was “inactive; negative”; the mutagenic call under setting [6] was “inactive; negative”; the mutagenic call (Test System: AMES SALMONELLA TYPHIMURIUM, Strain/Indicator: TA100, Metabolic Activation: RAT, LIVER, S-9, PHENOBARBITAL, Method: STANDARD PLATE) was “inactive; negative”; the mutagenic call (Test System: AMES SALMONELLA TYPHIMURIUM, Strain/Indicator: TM677/8-AZAGUANINE, Metabolic Activation: NONE, Method: STANDARD PLATE) was “inactive; negative”.

Take `O=c1[nH]cc2ccc3cccc4ccc1c2c34`: the mutagenic call runs as follows: under setting [4], “inactive; negative”; under setting [5], “inactive; negative”; under setting [6], “inactive; negative”; under setting [7], “inactive; negative”.

Take `C/C=C\c1ccc(OC)cc1OC`: the mutagenic call is “inactive; negative” under setting [1]; “inactive; negative” under setting [2]; “inactive; negative” under setting [4]; “inactive; negative” under setting [5]; “inactive; negative” under setting [6]; “inactive; negative” under setting [7]. Further, the mutagenic call (Test System: AMES SALMONELLA TYPHIMURIUM, Strain/Indicator: TA1535, Metabolic Activation: NONE, Method: STANDARD PLATE) is “inactive; negative”; the mutagenic call (Test System: AMES SALMONELLA TYPHIMURIUM, Strain/Indicator: TA1535, Metabolic Activation: RAT, LIVER, S-9, AROCLOR 1254, Method: STANDARD PLATE) is “inactive; negative”; the mutagenic call (Test System: AMES SALMONELLA TYPHIMURIUM, Strain/Indicator: TA1537, Metabolic Activation: NONE, Method: STANDARD PLATE) was “inactive; negative”; the mutagenic call (Test System: AMES SALMONELLA TYPHIMURIUM, Strain/Indicator: TA1537, Metabolic Activation: RAT, LIVER, S-9, AROCLOR 1254, Method: STANDARD PLATE) was “inactive; negative”; the mutagenic call (Test System: AMES SALMONELLA TYPHIMURIUM, Strain/Indicator: TA1538, Metabolic Activation: NONE, Method: STANDARD PLATE) was “inactive; negative”; the mutagenic call (Test System: AMES SALMONELLA TYPHIMURIUM, Strain/Indicator: TA1538, Metabolic Activation: RAT, LIVER, S-9, AROCLOR 1254, Method: STANDARD PLATE) was “inactive; negative”.

Take `Cc1ccc(NC2OC[C@@H](O)[C@H](O)[C@H]2O)cc1` (stereo partly drawn): the mutagenic call (Test System: AMES SALMONELLA TYPHIMURIUM, Strain/Indicator: TA100, Metabolic Activation: NONE, Method: LIQUID INCUBATION) was “active; positive”.
